Experimental data as given in BindingDB's records for doi:10.1016/j.bmcl.2004.12.045 (Nimbus Therapeutics, 2022).

Columns and labels:
[1] = molecular target: Potassium voltage-gated channel subfamily H member 2 (Homo sapiens, UniProt Q12809); assay: Inhibition of hERG measured by patchclamp assay
Cytochrome P450 3A5 = Cytochrome P450 3A5 (Homo sapiens, UniProt P20815); assay: Inhibition of CYP3A5 (unknown origin)
Cytochrome P450 1A2 = molecular target: T1, Cytochrome P450 1A2 (Homo sapiens, UniProt P05177); assay: Inhibition of CYP1A2 (unknown origin)
T1 sequence (P05177 whole entry): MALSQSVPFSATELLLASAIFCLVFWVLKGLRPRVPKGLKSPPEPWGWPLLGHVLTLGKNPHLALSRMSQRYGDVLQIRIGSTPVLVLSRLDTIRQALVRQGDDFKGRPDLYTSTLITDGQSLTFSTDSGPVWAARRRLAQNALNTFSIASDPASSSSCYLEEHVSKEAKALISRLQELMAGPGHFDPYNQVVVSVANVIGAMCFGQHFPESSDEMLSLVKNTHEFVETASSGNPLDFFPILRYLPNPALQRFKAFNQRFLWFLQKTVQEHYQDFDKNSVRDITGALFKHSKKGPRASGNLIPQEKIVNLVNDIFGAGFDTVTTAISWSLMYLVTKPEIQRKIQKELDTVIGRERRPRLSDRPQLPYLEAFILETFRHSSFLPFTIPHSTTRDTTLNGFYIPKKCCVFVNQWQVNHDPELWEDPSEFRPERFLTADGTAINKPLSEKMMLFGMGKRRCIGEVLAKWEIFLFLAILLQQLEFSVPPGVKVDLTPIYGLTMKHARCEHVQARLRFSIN

Cytochrome P450 2D6 = Cytochrome P450 2D6 (Homo sapiens, UniProt P10635); assay: Inhibition of CYP2D6 (unknown origin)
Cytochrome P450 2C9 = Cytochrome P450 2C9 (Homo sapiens, UniProt P11712); assay: Inhibition of CYP2C9 (unknown origin)
Cytochrome P450 2A6 = molecular target: T2, Cytochrome P450 2A6 (Homo sapiens, UniProt P11509); assay: Inhibition of CYP2A6 (unknown origin)
T2 sequence (P11509 whole entry): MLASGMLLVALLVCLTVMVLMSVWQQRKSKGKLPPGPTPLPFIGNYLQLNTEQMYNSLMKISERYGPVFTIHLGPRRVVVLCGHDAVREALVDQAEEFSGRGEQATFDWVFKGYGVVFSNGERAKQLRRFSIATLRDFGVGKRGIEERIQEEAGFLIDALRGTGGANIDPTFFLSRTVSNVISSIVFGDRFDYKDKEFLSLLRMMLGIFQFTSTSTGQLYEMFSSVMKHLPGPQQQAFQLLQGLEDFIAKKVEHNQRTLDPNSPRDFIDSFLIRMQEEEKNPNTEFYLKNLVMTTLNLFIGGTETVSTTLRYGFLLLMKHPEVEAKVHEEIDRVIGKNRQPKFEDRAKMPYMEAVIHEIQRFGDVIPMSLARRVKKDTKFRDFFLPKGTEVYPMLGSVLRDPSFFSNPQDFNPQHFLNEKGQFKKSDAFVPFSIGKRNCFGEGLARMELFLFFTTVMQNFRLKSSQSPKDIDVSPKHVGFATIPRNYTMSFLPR

Cytochrome P450 2C19 = Cytochrome P450 2C19 (Homo sapiens, UniProt P33261); assay: Inhibition of CYP2C19 (unknown origin)
Cytochrome P450 2E1 = Cytochrome P450 2E1 (Homo sapiens, UniProt P05181); assay: Inhibition of CYP2E1 (unknown origin)
Cytochrome P450 2C8 = molecular target: T3, Cytochrome P450 2C8 (Homo sapiens, UniProt P10632); assay: Inhibition of CYP2C8 (unknown origin)
T3 sequence (P10632 whole entry): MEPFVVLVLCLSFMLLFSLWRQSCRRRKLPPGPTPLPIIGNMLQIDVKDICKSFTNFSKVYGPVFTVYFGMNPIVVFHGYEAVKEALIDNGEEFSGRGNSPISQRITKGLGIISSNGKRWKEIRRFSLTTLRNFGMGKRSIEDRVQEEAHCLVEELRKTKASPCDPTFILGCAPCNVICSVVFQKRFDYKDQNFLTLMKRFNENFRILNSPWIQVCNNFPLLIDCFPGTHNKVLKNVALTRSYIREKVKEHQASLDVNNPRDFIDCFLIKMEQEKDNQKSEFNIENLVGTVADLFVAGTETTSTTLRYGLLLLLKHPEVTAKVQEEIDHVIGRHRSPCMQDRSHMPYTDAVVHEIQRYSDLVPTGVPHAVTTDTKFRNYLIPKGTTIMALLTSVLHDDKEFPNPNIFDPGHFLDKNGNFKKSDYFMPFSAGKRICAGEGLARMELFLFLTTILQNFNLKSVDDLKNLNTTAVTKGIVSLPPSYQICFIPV

Cytochrome P450 3A4 = Cytochrome P450 3A4 (Homo sapiens, UniProt P08684); assay: Inhibition of CYP3A4 (unknown origin)
Cytochrome P450 2B6 = molecular target: T4, Cytochrome P450 2B6 (Homo sapiens, UniProt P20813); assay: Inhibition of CYP2B6 (unknown origin)
T4 sequence (P20813 whole entry): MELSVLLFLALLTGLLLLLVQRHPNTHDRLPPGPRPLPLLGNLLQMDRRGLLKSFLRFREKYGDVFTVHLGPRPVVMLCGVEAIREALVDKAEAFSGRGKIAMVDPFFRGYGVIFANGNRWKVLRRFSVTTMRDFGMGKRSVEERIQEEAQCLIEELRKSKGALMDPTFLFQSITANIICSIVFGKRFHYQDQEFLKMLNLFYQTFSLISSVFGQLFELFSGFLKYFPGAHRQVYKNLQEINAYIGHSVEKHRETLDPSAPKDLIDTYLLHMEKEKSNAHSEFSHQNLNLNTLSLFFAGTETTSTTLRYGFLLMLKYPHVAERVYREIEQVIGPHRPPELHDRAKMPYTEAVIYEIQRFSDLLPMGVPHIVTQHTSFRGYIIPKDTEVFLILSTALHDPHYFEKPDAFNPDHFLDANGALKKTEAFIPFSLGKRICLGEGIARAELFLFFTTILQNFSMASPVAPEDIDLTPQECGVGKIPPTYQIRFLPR

Measured: IC50

Cytochrome P450 3A5, sequence (P20815 whole entry): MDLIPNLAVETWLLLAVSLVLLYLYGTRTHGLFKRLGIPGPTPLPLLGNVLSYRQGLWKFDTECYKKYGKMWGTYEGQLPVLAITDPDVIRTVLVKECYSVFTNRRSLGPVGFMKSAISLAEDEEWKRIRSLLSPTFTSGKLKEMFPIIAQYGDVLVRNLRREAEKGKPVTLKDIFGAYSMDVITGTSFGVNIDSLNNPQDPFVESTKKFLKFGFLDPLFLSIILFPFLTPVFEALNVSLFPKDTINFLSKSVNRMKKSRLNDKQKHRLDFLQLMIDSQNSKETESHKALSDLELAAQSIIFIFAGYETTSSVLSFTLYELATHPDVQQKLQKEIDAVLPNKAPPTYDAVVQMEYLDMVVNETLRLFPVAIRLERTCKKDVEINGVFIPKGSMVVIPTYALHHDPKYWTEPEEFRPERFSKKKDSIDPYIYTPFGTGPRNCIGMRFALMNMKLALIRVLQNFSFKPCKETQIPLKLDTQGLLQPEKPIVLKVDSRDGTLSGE
Potassium voltage-gated channel subfamily H member 2, sequence (Q12809 whole entry): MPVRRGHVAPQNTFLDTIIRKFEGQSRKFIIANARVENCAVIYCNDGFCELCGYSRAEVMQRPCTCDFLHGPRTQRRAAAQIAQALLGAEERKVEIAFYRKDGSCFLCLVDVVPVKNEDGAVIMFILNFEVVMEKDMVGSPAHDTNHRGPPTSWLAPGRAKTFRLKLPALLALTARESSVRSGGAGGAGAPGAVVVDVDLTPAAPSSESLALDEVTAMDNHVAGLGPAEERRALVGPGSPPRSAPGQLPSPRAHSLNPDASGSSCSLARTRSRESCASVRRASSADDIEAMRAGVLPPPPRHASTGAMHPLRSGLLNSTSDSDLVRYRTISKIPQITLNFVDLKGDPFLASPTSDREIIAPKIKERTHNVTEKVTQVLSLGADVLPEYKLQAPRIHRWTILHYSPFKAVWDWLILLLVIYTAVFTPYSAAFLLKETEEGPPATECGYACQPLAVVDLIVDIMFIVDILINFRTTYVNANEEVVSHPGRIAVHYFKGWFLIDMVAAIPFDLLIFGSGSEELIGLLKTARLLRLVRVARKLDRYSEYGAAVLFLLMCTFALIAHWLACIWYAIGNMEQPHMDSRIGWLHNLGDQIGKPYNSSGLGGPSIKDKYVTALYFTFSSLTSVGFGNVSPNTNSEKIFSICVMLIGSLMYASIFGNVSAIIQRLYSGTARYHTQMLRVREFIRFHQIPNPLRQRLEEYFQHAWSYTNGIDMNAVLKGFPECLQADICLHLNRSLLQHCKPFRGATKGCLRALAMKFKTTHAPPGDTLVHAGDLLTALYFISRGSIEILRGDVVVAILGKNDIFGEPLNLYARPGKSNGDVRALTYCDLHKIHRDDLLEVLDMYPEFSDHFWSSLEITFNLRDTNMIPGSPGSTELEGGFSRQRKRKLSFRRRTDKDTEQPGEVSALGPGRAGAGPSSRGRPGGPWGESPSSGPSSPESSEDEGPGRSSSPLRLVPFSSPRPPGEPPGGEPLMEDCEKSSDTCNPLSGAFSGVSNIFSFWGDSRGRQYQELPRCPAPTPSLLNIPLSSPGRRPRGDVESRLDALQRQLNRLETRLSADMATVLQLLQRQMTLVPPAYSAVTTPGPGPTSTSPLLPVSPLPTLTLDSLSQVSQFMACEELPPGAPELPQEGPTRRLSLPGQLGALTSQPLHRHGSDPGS
Cytochrome P450 3A4, sequence (P08684 whole entry): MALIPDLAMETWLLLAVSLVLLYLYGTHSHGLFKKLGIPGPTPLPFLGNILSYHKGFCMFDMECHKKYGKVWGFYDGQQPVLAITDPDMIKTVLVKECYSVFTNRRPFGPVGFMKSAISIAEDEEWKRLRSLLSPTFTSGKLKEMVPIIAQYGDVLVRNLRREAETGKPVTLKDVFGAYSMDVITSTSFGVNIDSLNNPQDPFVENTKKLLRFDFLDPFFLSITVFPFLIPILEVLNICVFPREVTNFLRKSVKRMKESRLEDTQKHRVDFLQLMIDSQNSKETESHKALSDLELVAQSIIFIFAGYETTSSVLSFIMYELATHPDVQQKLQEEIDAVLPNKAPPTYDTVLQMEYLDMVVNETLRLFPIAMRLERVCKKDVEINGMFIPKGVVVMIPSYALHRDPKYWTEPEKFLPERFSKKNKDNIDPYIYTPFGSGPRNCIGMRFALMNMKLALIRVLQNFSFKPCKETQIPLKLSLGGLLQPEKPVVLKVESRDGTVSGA
Cytochrome P450 2C19, sequence (P33261 whole entry): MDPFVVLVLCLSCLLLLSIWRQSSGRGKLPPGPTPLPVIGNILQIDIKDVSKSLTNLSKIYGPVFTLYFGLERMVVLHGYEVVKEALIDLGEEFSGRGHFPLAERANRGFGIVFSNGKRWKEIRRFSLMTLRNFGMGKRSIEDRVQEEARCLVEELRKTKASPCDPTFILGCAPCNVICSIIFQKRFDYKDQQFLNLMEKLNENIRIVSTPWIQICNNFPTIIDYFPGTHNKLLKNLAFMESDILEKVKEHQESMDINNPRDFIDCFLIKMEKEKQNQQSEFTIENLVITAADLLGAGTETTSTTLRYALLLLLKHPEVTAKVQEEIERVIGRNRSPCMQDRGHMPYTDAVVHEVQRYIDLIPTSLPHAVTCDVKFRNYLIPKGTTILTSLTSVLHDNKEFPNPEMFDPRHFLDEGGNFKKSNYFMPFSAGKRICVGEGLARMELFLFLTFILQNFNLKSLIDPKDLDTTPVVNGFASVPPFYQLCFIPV
Cytochrome P450 2C9, sequence (P11712 whole entry): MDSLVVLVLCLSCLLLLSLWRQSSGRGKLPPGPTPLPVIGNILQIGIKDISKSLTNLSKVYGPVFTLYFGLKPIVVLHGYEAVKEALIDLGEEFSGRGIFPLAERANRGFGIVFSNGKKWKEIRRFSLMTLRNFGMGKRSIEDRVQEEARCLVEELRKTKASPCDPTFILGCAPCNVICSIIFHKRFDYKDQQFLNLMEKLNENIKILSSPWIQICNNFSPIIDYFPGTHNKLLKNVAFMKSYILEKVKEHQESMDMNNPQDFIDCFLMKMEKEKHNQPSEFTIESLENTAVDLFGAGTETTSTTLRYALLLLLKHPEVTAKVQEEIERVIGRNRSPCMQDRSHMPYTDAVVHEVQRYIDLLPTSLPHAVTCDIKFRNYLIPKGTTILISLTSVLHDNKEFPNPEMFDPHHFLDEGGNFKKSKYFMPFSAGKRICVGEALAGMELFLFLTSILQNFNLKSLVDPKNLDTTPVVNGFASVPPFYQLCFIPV
Cytochrome P450 2E1, sequence (P05181 whole entry): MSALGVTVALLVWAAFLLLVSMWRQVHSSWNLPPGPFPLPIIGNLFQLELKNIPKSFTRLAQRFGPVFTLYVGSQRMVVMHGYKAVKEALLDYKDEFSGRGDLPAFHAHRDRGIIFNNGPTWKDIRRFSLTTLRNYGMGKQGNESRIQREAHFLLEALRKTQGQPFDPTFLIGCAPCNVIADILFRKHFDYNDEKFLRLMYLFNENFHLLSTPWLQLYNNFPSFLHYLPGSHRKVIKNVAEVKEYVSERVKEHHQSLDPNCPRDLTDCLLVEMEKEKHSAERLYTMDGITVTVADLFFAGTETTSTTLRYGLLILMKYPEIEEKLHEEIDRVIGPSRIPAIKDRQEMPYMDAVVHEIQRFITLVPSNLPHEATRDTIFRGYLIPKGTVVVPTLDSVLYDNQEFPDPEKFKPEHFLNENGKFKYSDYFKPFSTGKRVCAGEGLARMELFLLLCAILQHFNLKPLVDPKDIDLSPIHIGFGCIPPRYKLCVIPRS
Cytochrome P450 2D6, sequence (P10635 whole entry): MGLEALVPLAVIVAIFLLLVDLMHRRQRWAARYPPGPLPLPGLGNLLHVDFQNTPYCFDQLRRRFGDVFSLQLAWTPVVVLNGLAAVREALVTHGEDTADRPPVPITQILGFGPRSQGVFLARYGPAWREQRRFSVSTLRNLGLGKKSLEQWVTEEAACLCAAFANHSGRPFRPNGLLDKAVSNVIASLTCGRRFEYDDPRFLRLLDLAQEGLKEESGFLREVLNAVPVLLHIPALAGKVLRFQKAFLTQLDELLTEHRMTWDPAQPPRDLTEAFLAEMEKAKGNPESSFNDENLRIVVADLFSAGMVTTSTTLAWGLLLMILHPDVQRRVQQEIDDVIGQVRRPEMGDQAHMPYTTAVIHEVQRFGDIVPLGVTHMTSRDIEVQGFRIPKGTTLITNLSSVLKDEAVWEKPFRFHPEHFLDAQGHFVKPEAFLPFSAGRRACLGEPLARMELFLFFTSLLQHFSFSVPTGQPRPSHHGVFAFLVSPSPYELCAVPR

O=C1NCc2nc(-c3c(F)cccc3F)cc(Nc3ccc(C(=O)N4CCCC4)cc3)c21 [US10336752, Compound 2]
> 30 µM: all assays above
